Laboratory results reported in the NIST ThermoML archive (doi:10.1021/je060271a).
Numbers after ± are expanded uncertainties.

Conditions: 283.15 K, Liquid, Vibrating tube method

CCCCC(=O)OCC(COC(=O)CCCC)(COC(=O)CCCC)COC(=O)CCCC [pentaerythritol tetrapentanoate]
mass density (5629.7 kPa): 1030.4 ± 1.2 kg/m3
mass density (5659.1 kPa): 1030.3 ± 1.2 kg/m3
mass density (5688.1 kPa): 1030.4 ± 1.2 kg/m3
mass density (5723.9 kPa): 1030.4 ± 1.2 kg/m3
mass density (5754.6 kPa): 1030.5 ± 1.2 kg/m3
mass density (5779.1 kPa): 1030.6 ± 1.2 kg/m3
mass density (5803 kPa): 1030.5 ± 1.2 kg/m3
mass density (5832 kPa): 1030.5 ± 1.2 kg/m3
mass density (5856.1 kPa): 1030.5 ± 1.2 kg/m3
mass density (5881 kPa): 1030.5 ± 1.2 kg/m3
mass density (5906.4 kPa): 1030.5 ± 1.2 kg/m3
mass density (5936.8 kPa): 1030.5 ± 1.2 kg/m3
mass density (5961.9 kPa): 1030.6 ± 1.2 kg/m3
mass density (5987.7 kPa): 1030.6 ± 1.2 kg/m3
mass density (6018.4 kPa): 1030.5 ± 1.2 kg/m3
mass density (6044.4 kPa): 1030.6 ± 1.2 kg/m3
mass density (6070.3 kPa): 1030.6 ± 1.2 kg/m3
mass density (6097.3 kPa): 1030.6 ± 1.2 kg/m3
mass density (6128.9 kPa): 1030.6 ± 1.2 kg/m3
mass density (6155.9 kPa): 1030.8 ± 1.2 kg/m3
mass density (6188.9 kPa): 1030.7 ± 1.2 kg/m3
mass density (6217.1 kPa): 1030.7 ± 1.2 kg/m3
mass density (6245.2 kPa): 1030.6 ± 1.2 kg/m3
mass density (6273.6 kPa): 1030.7 ± 1.2 kg/m3
mass density (6301.9 kPa): 1030.7 ± 1.2 kg/m3
mass density (6336.3 kPa): 1030.8 ± 1.2 kg/m3
mass density (6365.5 kPa): 1030.8 ± 1.2 kg/m3
mass density (6395.6 kPa): 1030.8 ± 1.2 kg/m3
mass density (6431.7 kPa): 1030.9 ± 1.2 kg/m3
mass density (6462.7 kPa): 1030.8 ± 1.2 kg/m3
mass density (6491.7 kPa): 1030.9 ± 1.2 kg/m3
mass density (6519.4 kPa): 1030.9 ± 1.2 kg/m3
mass density (6542.3 kPa): 1030.9 ± 1.2 kg/m3
mass density (6565.5 kPa): 1031 ± 1.2 kg/m3
mass density (6593.5 kPa): 1031.1 ± 1.2 kg/m3
mass density (6616.8 kPa): 1031 ± 1.2 kg/m3
mass density (6640.3 kPa): 1031 ± 1.2 kg/m3
mass density (6668.5 kPa): 1031 ± 1.2 kg/m3
mass density (6692.7 kPa): 1031 ± 1.2 kg/m3
mass density (6717.5 kPa): 1031.1 ± 1.2 kg/m3
mass density (6741.9 kPa): 1031 ± 1.2 kg/m3
mass density (6771.1 kPa): 1031.1 ± 1.2 kg/m3
mass density (6796.3 kPa): 1031.1 ± 1.2 kg/m3
mass density (6820.7 kPa): 1031 ± 1.2 kg/m3
mass density (6850.6 kPa): 1031 ± 1.2 kg/m3
mass density (6876.8 kPa): 1031.1 ± 1.2 kg/m3
mass density (6902.9 kPa): 1031.1 ± 1.2 kg/m3
mass density (6929.7 kPa): 1031.2 ± 1.2 kg/m3
mass density (6961.3 kPa): 1031.2 ± 1.2 kg/m3
mass density (6989.3 kPa): 1031.2 ± 1.2 kg/m3
mass density (7017.1 kPa): 1031.2 ± 1.2 kg/m3
mass density (7043.5 kPa): 1031.2 ± 1.2 kg/m3
mass density (7061.5 kPa): 1031.2 ± 1.2 kg/m3
mass density (7079.3 kPa): 1031.1 ± 1.2 kg/m3
mass density (7097.4 kPa): 1031.2 ± 1.2 kg/m3
mass density (7118.7 kPa): 1031.2 ± 1.2 kg/m3
mass density (7234.2 kPa): 1031.4 ± 1.2 kg/m3
mass density (7256.3 kPa): 1031.3 ± 1.2 kg/m3
mass density (7276 kPa): 1031.3 ± 1.2 kg/m3
mass density (7295 kPa): 1031.3 ± 1.2 kg/m3
mass density (7315.5 kPa): 1031.4 ± 1.2 kg/m3
mass density (7334.8 kPa): 1031.4 ± 1.2 kg/m3
mass density (7354.5 kPa): 1031.4 ± 1.2 kg/m3
mass density (7377.5 kPa): 1031.5 ± 1.2 kg/m3
mass density (7396.8 kPa): 1031.4 ± 1.2 kg/m3
mass density (7420.6 kPa): 1031.4 ± 1.2 kg/m3
mass density (7440.5 kPa): 1031.5 ± 1.2 kg/m3
mass density (7460.5 kPa): 1031.4 ± 1.2 kg/m3
mass density (7480.2 kPa): 1031.4 ± 1.2 kg/m3
mass density (7504.4 kPa): 1031.5 ± 1.2 kg/m3
mass density (7525.1 kPa): 1031.4 ± 1.2 kg/m3
mass density (7592.3 kPa): 1031.6 ± 1.2 kg/m3
mass density (7634.1 kPa): 1031.5 ± 1.2 kg/m3
mass density (7655.5 kPa): 1031.6 ± 1.2 kg/m3
mass density (7680.7 kPa): 1031.4 ± 1.2 kg/m3
mass density (7702.1 kPa): 1031.7 ± 1.2 kg/m3
mass density (7723.5 kPa): 1031.5 ± 1.2 kg/m3
mass density (7745.1 kPa): 1031.6 ± 1.2 kg/m3
mass density (7771 kPa): 1031.6 ± 1.2 kg/m3
mass density (7792.7 kPa): 1031.7 ± 1.2 kg/m3
mass density (7814.7 kPa): 1031.6 ± 1.2 kg/m3
mass density (7836.8 kPa): 1031.7 ± 1.2 kg/m3
mass density (7863.9 kPa): 1031.6 ± 1.2 kg/m3
mass density (7886.1 kPa): 1031.7 ± 1.2 kg/m3
mass density (7909.2 kPa): 1031.7 ± 1.2 kg/m3
mass density (8005.6 kPa): 1031.7 ± 1.2 kg/m3
mass density (8079.8 kPa): 1031.9 ± 1.2 kg/m3
mass density (8132.6 kPa): 1031.8 ± 1.2 kg/m3
mass density (8156.2 kPa): 1031.8 ± 1.2 kg/m3
mass density (8209.7 kPa): 1031.8 ± 1.2 kg/m3
mass density (8234 kPa): 1031.8 ± 1.2 kg/m3
mass density (8258.7 kPa): 1031.9 ± 1.2 kg/m3
mass density (8283.5 kPa): 1031.9 ± 1.2 kg/m3
mass density (8312.9 kPa): 1031.9 ± 1.2 kg/m3
mass density (8337.9 kPa): 1031.8 ± 1.2 kg/m3
mass density (8363.2 kPa): 1031.9 ± 1.2 kg/m3
mass density (8393.6 kPa): 1032 ± 1.2 kg/m3
mass density (8418.8 kPa): 1032.2 ± 1.2 kg/m3
mass density (8444.3 kPa): 1031.9 ± 1.2 kg/m3
mass density (8474.7 kPa): 1032 ± 1.2 kg/m3
mass density (8501.2 kPa): 1032.1 ± 1.2 kg/m3
mass density (8527.8 kPa): 1032 ± 1.2 kg/m3
mass density (8554.5 kPa): 1032 ± 1.2 kg/m3
mass density (8586.3 kPa): 1032.1 ± 1.2 kg/m3
mass density (8612.5 kPa): 1032 ± 1.2 kg/m3
mass density (8644.9 kPa): 1032.2 ± 1.2 kg/m3
mass density (8671.8 kPa): 1032.2 ± 1.2 kg/m3
mass density (8698.7 kPa): 1032.2 ± 1.2 kg/m3
mass density (8726 kPa): 1032.1 ± 1.2 kg/m3
mass density (8759.1 kPa): 1032 ± 1.2 kg/m3
mass density (8787 kPa): 1032.2 ± 1.2 kg/m3
mass density (8815 kPa): 1032.2 ± 1.2 kg/m3
mass density (8848.6 kPa): 1032.3 ± 1.2 kg/m3
mass density (8877 kPa): 1032.2 ± 1.2 kg/m3
mass density (8906.3 kPa): 1032.3 ± 1.2 kg/m3
mass density (8934.4 kPa): 1032.3 ± 1.2 kg/m3
mass density (8969.3 kPa): 1032.3 ± 1.2 kg/m3
mass density (8998.4 kPa): 1032.4 ± 1.2 kg/m3
mass density (9027.7 kPa): 1032.3 ± 1.2 kg/m3
mass density (9092.4 kPa): 1032.4 ± 1.2 kg/m3
mass density (9158.9 kPa): 1032.3 ± 1.2 kg/m3
mass density (9189.8 kPa): 1032.4 ± 1.2 kg/m3
mass density (9220.8 kPa): 1032.6 ± 1.2 kg/m3
mass density (9257.3 kPa): 1032.5 ± 1.2 kg/m3
mass density (9288.4 kPa): 1032.5 ± 1.2 kg/m3
mass density (9320.3 kPa): 1032.4 ± 1.2 kg/m3
mass density (9599.3 kPa): 1032.6 ± 1.2 kg/m3
mass density (9632.7 kPa): 1032.7 ± 1.2 kg/m3
mass density (9666.3 kPa): 1032.8 ± 1.2 kg/m3
mass density (9707.5 kPa): 1032.7 ± 1.2 kg/m3
mass density (9743 kPa): 1032.7 ± 1.2 kg/m3
mass density (9779.3 kPa): 1032.7 ± 1.2 kg/m3
mass density (9813.6 kPa): 1032.9 ± 1.2 kg/m3
mass density (9848.6 kPa): 1032.9 ± 1.2 kg/m3
mass density (9891.1 kPa): 1032.8 ± 1.2 kg/m3
mass density (9926.8 kPa): 1032.8 ± 1.2 kg/m3
mass density (9963 kPa): 1032.8 ± 1.2 kg/m3
mass density (10006 kPa): 1032.8 ± 1.2 kg/m3
mass density (10044 kPa): 1032.9 ± 1.2 kg/m3
mass density (10125 kPa): 1032.9 ± 1.2 kg/m3
mass density (10200 kPa): 1033.1 ± 1.2 kg/m3
mass density (10248 kPa): 1033 ± 1.2 kg/m3
mass density (10286 kPa): 1033 ± 1.2 kg/m3
mass density (10324 kPa): 1033.1 ± 1.2 kg/m3
mass density (10363 kPa): 1033 ± 1.2 kg/m3
mass density (10410 kPa): 1033.1 ± 1.2 kg/m3
mass density (10449 kPa): 1033.2 ± 1.2 kg/m3
mass density (10489 kPa): 1033.1 ± 1.2 kg/m3
mass density (10537 kPa): 1033.2 ± 1.2 kg/m3
mass density (10577 kPa): 1033.2 ± 1.2 kg/m3
mass density (10619 kPa): 1033.3 ± 1.2 kg/m3
mass density (10668 kPa): 1033.3 ± 1.2 kg/m3
mass density (10710 kPa): 1033.4 ± 1.2 kg/m3
mass density (10753 kPa): 1033.3 ± 1.2 kg/m3
mass density (10805 kPa): 1033.3 ± 1.2 kg/m3
mass density (10848 kPa): 1033.4 ± 1.2 kg/m3
mass density (10894 kPa): 1033.3 ± 1.2 kg/m3
mass density (10948 kPa): 1033.3 ± 1.2 kg/m3
mass density (10990 kPa): 1033.4 ± 1.2 kg/m3
mass density (11025 kPa): 1033.4 ± 1.2 kg/m3
